The text below walks through data of ChEMBL document CHEMBL1132501, “Synthesis and anti-Helicobacter pylori activity of FR182024, a new cephem derivative” (1999).

The nature of assay [1]: The compound was tested against Penicillinase (TEM) and its stability towards beta-lactamase relative to cephaloridine was evaluated. The assay is classed as functional.
Assay [2] is described as follows: The compound was tested against penicillinase (TEM) and its stability towards beta-lactamase relative to cephaloridine was evaluated.
The test system of assay [3] is Beta-lactamase (Bacteroides fragilis). Put plainly: The compound was tested against Bacteroides fragilis FP784 its stability towards beta-lactamase relative to cephaloridine was evaluated.
Assay [4] can be described thus: The compound was tested against penicillinase (TEM) and its stability towards beta-lactamase was evaluated.

Turning to `O=C(Cc1cccs1)N[C@@H]1C(=O)N2C(C(=O)[O-])=C(C[n+]3ccccc3)CS[C@H]12`, in assay [1], the Vmax was 1 and the Vmax / Km was determined as 1.
`Cc1nnc(SC2=C(C(=O)O)N3C(=O)[C@@H](NC(=O)Cc4ccccc4)[C@H]3SC2)s1`: in assay [2], the Vmax is 3.61 and the Vmax / Km was 6.33. For the same molecule, the Vmax / Km in assay [3] came to 1.98. In addition, the Km – broadly, the concentration of substrate that gives half-maximal velocity – in assay [4] was determined as 47.4 µg/mL.
